Measured values published in US20240366602A1, “COMBINATION THERAPY OF APELIN RECEPTOR AGONIST AND GLP-1 RECEPTOR AGONIST FOR TREATING A DISEASE OR CONDITION ASSOCIATED WITH WEIGHT GAIN” (BioAge Labs, Inc., priority 2023, published 2024).

Columns and labels:
[1] = test system: Diet-Induced Obese Mice; test: Combination of BAL-1480 and tirzepatide in obese mice (Example 6); assay type: in vivo
Excerpt: To measure the effect of another APJ agonist, BAL-1480, compound 13 as described by Narayanan et al. in J. Med. Chem. 2021, 64, 3006-3025, on weight loss or body composition in Diet-Induced Obese Mice by GLP-1 receptor agonist tirzepatide.
Measurement used and justifications include: body weight, food intake, water intake, non-fasted blood glucose, and body composition by Echo-MRI.
C57BL/6 obese male mice from Jax and housed to 9-months old were fed with a lean control diet D12450B (10 kcal % fat) and a diet-induced obesity (DIO) diet D12492 (60 kcal % fat) (Research Diets, Inc.).
Male DIO mice were acclimated to a single house cage for two weeks. Body weight, morning non-fasted blood glucose, and body composition were measured for randomization. Target DIO weight range at randomization 51.4-67.5 g. After randomization, mice were given treatment as the following groups (All groups were paired with relative dosing s.c. vehicle (20 mM citrate buffer at pH 7.0, 4 mL/kg) or drinking water with addition of 5 mM Sucralose (5 mM Sucralose, pH 3) to insure water consumption despite possible taste alterations from drug).
Study groups • 0. Lean ctrl, n=7 • 1. DIO+VEH (vehicle), n=7 • 2. DIO+BAL-1480 (0.25 g/L in drug water), n=7 • 3. DIO+BAL-1480 (1 g/L in drug water), n=7 • 4. DIO+tirzepatide (10 nmol/kg), n=7 • 5. DIO+tirzepatide (10 nmol/kg)+BAL-1480 (0.25 g/L in drug water), n=7 • 6. DIO+tirzepatide (10 nmol/kg)+BAL-1480 (1 g/L in drug water), n=7
(0) Lean control: age matched lean mice control (5 mM sucralose water+vehicle, s.c., every 3 days); (1) DIO+VEH: diet-induced obese mice treated with vehicle control (5 mM sucralose water, pH 3+vehicle, s.c., every 3 days); (2) DIO+BAL-1480 (0.25 g/L in drug water): diet-induced obese mice treated with BAL-1480 at 0.25 g/L; (3) DIO+BAL-1480 (1 g/L in drug water): diet-induced obese mice treated with BAL-1480 at 1 g/L; (4) DIO+tirzepatide (10 nmol/kg): diet-induced obese mice treated with tirzepatide at 10 nmol/kg, s.c., every 3 days+5 mM sucralose water, pH 3; (5) DIO+tirzepatide (10 nmol/kg)+BAL-1480 (0.25 g/L in drug water): diet-induced obese mice treated with tirzepatide at 10 nmol/kg in combination with BAL-1480 at 0.25 g/L; (6) DIO+tirzepatide (10 nmol/kg)+BAL-1480 (1 g/L in drug water): diet-induced obese mice treated with tirzepatide at 10 nmol/kg in combination with BAL-1480 at 1 g/L.
Tirzepatide (hydrochloride) was purchased from MCE (Cat No. HY—P1731B/CS-0107005). Mw=4849.91, 10 nmol/kg=0.0485 mg/kg, 4 mL/kg, drug concentration: 0.012 mg/mL in s.c. vehicle, every 3 days. BAL-1480 0.25 g/L or 1 g/L was prepared in drinking water with 5 mM Sucralose, pH 3.
Body weight, food intake, water intake, body composition and morning non-fasted blood glucose were measured during the entire study. After 20 days of treatment and measurement, mice were taken down to harvest tissues for further downstream analysis. On the day of necropsy, blood plasma and organ/tissue samples were collected. Tissue samples were weighed and processed for further tests. Terminal cardiac blood samples (Heparin plasma) were obtained.
Data were expressed as mean±SEM and statistically analyzed by 1-way or 2-way ANOVA

[2] = test system: Diet-Induced Obese (DIO) mice; test: Pilot study of BGE-105 in aged DIO mice treated with semaglutide (Example 1); assay type: in vivo
Excerpt: Endpoints and measurements used to assess effects included: • Body Weight, Clinical Evaluation & Body Condition Score; • Group Food Intake, Water Intake; • Fed Glucose; • Body composition by Echo-MRI; • Baseline and endpoint grid hang tests; and • Endpoint tissue harvest.
25-month-old (aged) C57BL/6 female mice were used in this study. Diet for 25-month-old C57BL/6 mice included lean control D12450B (10 kcal % fat), or a diet induced-obesity (DIO) diet D12492 (60 kcal % fat) (Research Diets, Inc.). The study duration was 37 days. Treatment started on Day 0 and ended on Day 35-36.
Semaglutide was purchased from MCE (Cat No. HY-114118/CS-0069903)
Mice from all Groups (1-5) were measured with fed glucose, and body weight and body composition for randomization.
Body weight, group food intake, group water intake, body composition and grid hang tests were measured and monitored during the study.
On the day of necropsy, blood plasma and tissue samples were collected.

[3] = BAL-1480 monotherapy 1 g/L, both combination groups, vs tirzepatide monotherapy

Molecule | Fatty liver weight and fat tissue weights at terminal harvest ([1]; BAL-1480 1 g/L and combination groups vs tirzepatide monotherapy) | Muscle to body weight percentages at terminal harvest ([1]; BAL-1480 1 g/L and combination groups, to similar level as lean control mice) | Fat mass percentage [1, 3] | Lean mass percentage [1, 3] | Lean/fat ratio [1, 3] | Absolute fat mass ([1]; BAL-1480 monotherapy 1 g/L, combinations tirzepatide 10 nmol/kg + BAL-1480 0.25 or 1 g/L, vs tirzepatide monotherapy) | Weight loss ([1]; obese mice, BAL-1480 0.25 and 1 g/L in drinking water) | Muscle function, grid hang test (latency before mice fell from the grid) ([2]; semaglutide 100 nmol/kg, BGE-105 1.1 mg/mL, combination compared to either agent alone) | Weight of perigonadal fat at study endpoint ([2]; semaglutide 100 nmol/kg, BGE-105 1.1 mg/mL, combination loss statistically significant) | Quadriceps weight as a percentage of total body weight at study endpoint ([2]; semaglutide 100 nmol/kg, BGE-105 1.1 mg/mL, vs DIO control mice) | neutrophil gelatinase-associated lipocalin (NGAL) level at study endpoint ([2]; vs DIO control mice)
COc1cccc(OC)c1-c1cc(C(=O)N[C@@H](CCN2CCCCC2)CC(=O)NC2CCC2)nn1C1CCCC1 [BAL-1480] | reduced the fatty liver weight and fat tissue weights | dramatically increased the muscle to body weight percentages | significant decrease of fat mass percentage | significant increase of lean mass percentage | significant increase of lean/fat ratio | significant reduction of absolute fat mass | dose-dependent effect on weight loss | – | – | – | –
semaglutide [reference compound] | – | – | – | – | – | – | – | increased muscle function | statistically insignificant loss in perigonadal fat | increased quadricep weight as a percentage of total body weight, but the increases did not achieve statistical significance | decreased plasma NGAL level
